PMC5052702 (Nature Communications, 2016)
Where “and” joins values, the source holds several entries; their conditions need not be identical. Equal entries are not always repeated. Where two headings read alike, the source gives them in different places.

Assays:
CVB3 3C protease = target: T1, CVB3 3C protease (Coxsackievirus B3, UniProt P03313); assay: FRET-based enzyme activity assay (warhead activation / inhibitor kinetics); type: biochemical, Coxsackie virus B3; details: for kinact/KI: relative inactivation rate, slope of kobs against inhibitor concentration
T1 construct: 3C protease of Coxsackie virus B3 consisting of 183 amino-acid residues; made in house; host or cells: E. coli BL21(DE3), plasmid pET-23a(+)
Procedure: The activity of the protease was measured by hydrolysis of the FRET-substrate N-Dabcyl-KTLEALFQ↓GPPVYE(Edans)-NH2. The peptide was purchased from Biosyntan (Berlin, Germany). Samples were irradiated with light with a wavelength of 355 nm and the emitted light at 538 nm was measured in relative fluorescence units (RFUs). An amount of 100 pmol of cleaved substrate equals 5,000 RFU.
Assay samples contained 10 μl of a 100 mM HEPES-NaOH buffer solution pH 7.5/1 mM EDTA, 10 μl enzyme solution (2 μM CVB3 3C^Pro), 10 μl of 10 μM substrate solution (both dissolved in the above buffer) and 1 μl Inhibitor and/or fragment dissolved in DMSO. For assay results of a dilution series of a mixture of 1 and 2 and comparison of reaction products in dependence of the assay solvent, see Supplementary Figs 1 and 2.
The screening procedure consisted of the following steps: 10 μl 100 mM HEPES-NaOH buffer solution pH 7.5/1 mM EDTA was placed in a cavity of the 384-well plate (polystyrene, Corning 3544). Then 10 μl of enzyme solution (40 μM CVB3 3C protease in 100 mM HEPES-NaOH buffer solution, pH 7.5/1 mM EDTA) was added and the plate was shaken for 2 min at 1,400 r.p.m. Afterwards, 0.5 μl of a DMSO solution of the electrophilic probe and 0.5 μl of a DMSO solution of the nucleophile was added, followed by 10 μl of substrate solution (10 μM in 100 mM HEPES-NaOH buffer solution, pH 7.5/1 mM EDTA). The plate was shaken again for 2 min at 1,400 r.p.m. and the generated fluorescence signal was measured with a Safire II Fluorimeter from Tecan. The electrophilic probe 1 was used at a concentration of 400 μM for the screening, which lowered the protease activity by 10–20%. Eight-hundred fifty primary amines were tested at a concentration of 320 μM and fragment 2 amplified the inhibitory activity of 1 most potently. Positive control samples contained only DMSO instead of the probe or the nucleophile. Negative control samples contained no active enzyme. An interfering fluorescent effect has not been observed.
When determining the inhibitory parameters of an inhibitor, the assay set-up was as mentioned but 1 μl DMSO solution of inhibitor was used instead of probe or nucleophile. Different concentrations of inhibitor were tested at least as duplicates and the pseudo-first-order association kinetics (kobs) were determined using GraphPad Prism. The slope of a plot of the different kobs values against the inhibitor concentration yielded kinact/KI.

ERBV-1 3C protease = ERBV-1 3C protease (Equine rhinitis B virus 1, UniProt Q66776); assay: In vitro proteolytic activity assay (HPLC, 3 h incubation); type: biochemical; details: for reduction of protease activity: protein inhibitor stoichiometries of 1:1 and 1:3; for IC50: fixed enzyme concentration, 3 h incubation
Procedure: (§1) For 12 and 14, the inhibitory activity decreased for EV-B93>PSV-1>ERBV-1>AiV-1>EV-D68>HRV-A49.
(§2) A volume of 100 μl of reaction mixture containing 1.9 μM 3C protease, 25 μM substrate peptide, 5% DMSO, buffer (30 mM Tris pH 8.0, and 50 mM NaCl or 50 mM HEPES pH 7.4 and 50 mM NaCl) and (optionally) different concentrations of inhibitor was incubated in 37 °C during 3 h. The reaction was quenched by addition of 0.5% (final concentration) TFA. Samples were analysed by HPLC on SOURCE 15RPC ST 4.6/100 column using: 2–90% linear gradient of ACN in 0.1% TFA. The 3C protease activity in the absence of inhibitor was defined as 100%. The following peptides (GL Biochem, Shanghai, China) were dissolved in DMSO at a concentration of 5 mM and used for testing 3C proteases activity (Table 3).

EV-D68 3C protease = target: T2, EV-D68 3C protease (Human enterovirus D68, UniProt Q68T42); assay: as above; type: biochemical; details: for reduction of protease activity: protein inhibitor stoichiometries of 1:1 and 1:3; for IC50: fixed enzyme concentration, 3 h incubation, read-out: IC50 HEV-D68
T2 construct: a panel of six additional rhinoviral and enteroviral 3C proteases; purchased European Virus Archive
Procedure: as §1, §2

PSV-1 3C protease = PSV-1 3C protease (Porcine sapelovirus 1, UniProt Q8JJT0); assay: as above; type: biochemical; details: for reduction of protease activity: protein inhibitor stoichiometries of 1:1 and 1:3; for IC50: fixed enzyme concentration, 3 h incubation
Procedure: as §1, §2

HRV-A49 3C protease = HRV-A49 3C protease (Rhinovirus A49, UniProt A5GZE5); assay: as above; type: biochemical, human rhinovirus A49; details: for reduction of protease activity: protein inhibitor stoichiometries of 1:1 and 1:3; for IC50: fixed enzyme concentration, 3 h incubation
Procedure: as §1, §2

AiV-1 3C protease = target: T3, AiV-1 3C protease (Aichi virus, UniProt O91464); assay: as above; type: biochemical, Aichi virus 1; details: for reduction of protease activity: protein inhibitor stoichiometries of 1:1 and 1:3; for IC50: fixed enzyme concentration, 3 h incubation
T3 construct: a panel of six additional rhinoviral and enteroviral 3C proteases; purchased European Virus Archive
Procedure: as §1, §2

EV-B93 3C protease = EV-B93 3C protease (Enterovirus B93 (species Enterovirus B), UniProt Q5DSM6); assay: as above; type: biochemical, human enterovirus B93; details: for reduction of protease activity: protein inhibitor stoichiometries of 1:1 and 1:3; for IC50: fixed enzyme concentration, 3 h incubation; for inhibition of the enzyme: one inhibitor equivalent
Procedure: as §1, §2

Trypsin = assay: Side reactivity testing against different proteases; type: biochemical; details: 50 mM MOPS-NaOH pH 8.0 / 154 mM NaCl, 57 µM Boc-LGR-AMC as substrate
Procedure: (§3) The four enzymes cover a broad range of S1-preferences, namely for arginine/lysine (trypsin, factor Xa), hydrophobic residues (chymotrypsin) and aspartate (caspase-3).
(§4) Supplementary Table 3. Side reactivity testing of selected compounds against different
Cpd# Structure Trypsin1) Chymotrypsin2) Human factor Xa3) Human Caspase-34)
1) in 50 mM MOPS-NaOH pH 8.0 / 154 mM NaCl with 57 µM tert. butyloxycarbonyl (Boc)-LGR-7-amino-4-
methylcoumarin (AMC) as substrate; […]

Chymotrypsin = assay: as above; type: biochemical; details: for IC50: 50 mM MOPS-NaOH pH 8.0 / 154 mM NaCl, 1.6 mM AF-AMC as substrate; for activity against chymotrypsin, in words: at concentrations of 100 μM
Procedure: as §3, §4
(§5) Cpd# Structure Trypsin1) Chymotrypsin2) Human factor Xa3) Human Caspase-34) […]
2) in 50 mM MOPS-NaOH pH 8.0 / 154 mM NaCl with 1.6 mM AF-AMC as substrate. […]

Human Caspase-3 = target: T4, Human Caspase-3 (Homo sapiens, UniProt P42574); assay: as above; type: biochemical; details: for IC50: 50 mM HEPES-NaOH pH 7.5, 10 µM acetyl-DEVD-AMC as substrate; for activity against caspase-3, in words: at concentrations of 100 μM
T4 sequence (P42574 29-175 limits assumed): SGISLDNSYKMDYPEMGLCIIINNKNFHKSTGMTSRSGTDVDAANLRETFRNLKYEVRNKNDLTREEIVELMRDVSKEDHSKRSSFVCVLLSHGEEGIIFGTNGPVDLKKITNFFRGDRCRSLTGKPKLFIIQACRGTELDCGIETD
T4 sequence (P42574 176-277 limits assumed): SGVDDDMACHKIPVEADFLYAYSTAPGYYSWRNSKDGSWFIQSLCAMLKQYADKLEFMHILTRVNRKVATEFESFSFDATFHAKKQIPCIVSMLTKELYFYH
Procedure: as §3, §4, §5
4) in 50 mM HEPES-NaOH pH 7.5 / 100 mM NaCl / 1 mM EDTA / 0.1% (w/v) CHAPS / 10% (v/v) glycerol /2 mM DTT
with 10 µM acetyl-DEVD-AMC as substrate;

Human factor Xa = Human factor Xa (Homo sapiens, UniProt P00742); assay: as above; type: biochemical; details: for IC50: 50 mM MOPS-NaOH pH 8.0 / 154 mM NaCl, 114 µM Boc-LGR-AMC as substrate; for activity against factor Xa, in words: at concentrations of 100 μM
Procedure: as §3, §4, §5
3) in 50 mM MOPS-NaOH pH 8.0 / 154 mM NaCl with 114 µM Boc-LGR-AMC as substrate; […]

CBV 3C protease = target: T5, CBV 3C protease (Coxsackievirus B3, UniProt P03313); assay: In vitro proteolytic activity assay (3 h incubation); type: biochemical, Coxsackie virus B3; details: fixed enzyme concentration
T5 construct: 3C protease of Coxsackie virus B3 consisting of 183 amino-acid residues; made in house; host or cells: E. coli BL21(DE3), plasmid pET-23a(+)
Procedure: as §2

Sequence of Human factor Xa (P00742 235-488 limits assumed): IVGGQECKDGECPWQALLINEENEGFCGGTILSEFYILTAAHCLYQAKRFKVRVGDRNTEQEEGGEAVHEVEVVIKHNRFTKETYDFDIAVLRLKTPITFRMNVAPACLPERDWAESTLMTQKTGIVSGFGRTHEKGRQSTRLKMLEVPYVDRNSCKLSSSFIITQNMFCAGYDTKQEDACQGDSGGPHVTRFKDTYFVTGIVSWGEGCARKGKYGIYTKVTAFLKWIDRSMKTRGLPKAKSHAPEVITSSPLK
Sequence of Human factor Xa (P00742 41-179 partner limits assumed): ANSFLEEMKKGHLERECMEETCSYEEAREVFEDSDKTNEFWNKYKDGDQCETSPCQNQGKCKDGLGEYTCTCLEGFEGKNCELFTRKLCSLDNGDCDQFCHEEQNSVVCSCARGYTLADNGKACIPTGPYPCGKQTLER

CCOC(=O)/C=C/C(=O)Oc1cc(N)n(C2CCCCCC2)n1 [Compound 11]
IC50 (CVB3 3C protease; read-out: IC50): 20.2 ± 1.6 µM

CCOC(=O)/C=C\C(=O)Nc1cc(=O)[nH]n1C1CCCCCC1 [Compound 12]
reduction of protease activity (ERBV-1 3C protease): strongly reduced the activity
reduction of protease activity (EV-D68 3C protease): strongly reduced the activity
reduction of protease activity (PSV-1 3C protease): strongly reduced the activity
reduction of protease activity (HRV-A49 3C protease): strongly reduced the activity
reduction of protease activity (AiV-1 3C protease): strongly reduced the activity
kinact/KI (CVB3 3C protease): 606 M⁻¹ s⁻¹ and 606.4 ± 24.9 M⁻¹ s⁻¹
reduction of protease activity (EV-B93 3C protease): strongly reduced the activity

CCOC(=O)/C=C\C(N)=O [Compound 13]
kinact/KI (CVB3 3C protease): 34 M⁻¹ s⁻¹ and 34.7 ± 1.5 M⁻¹ s⁻¹

CCNC(=O)/C=C\C(=O)Nc1cc(=O)[nH]n1C1CCCCCC1 [Compound 14]
IC50 (ERBV-1 3C protease): > 10000 nM
IC50 (EV-D68 3C protease): > 20000 nM
IC50 (PSV-1 3C protease): 8 µM
IC50 (HRV-A49 3C protease): > 20000 nM
IC50 (AiV-1 3C protease): 9 µM
fold reduction of inactivation rate relative to ethyl ester 12 (CVB3 3C protease): 10 fold
kinact/KI (CVB3 3C protease): 63.1 ± 3.1 M⁻¹ s⁻¹
kinact/KI (CVB3 3C protease; read-out: kinact/KI): 63 M⁻¹ s⁻¹
IC50 (Trypsin): > 500 µM
IC50 (EV-B93 3C protease): 4000 nM
inhibition of the enzyme (EV-B93 3C protease): fully inhibited
IC50 (Chymotrypsin): > 500 µM
activity against chymotrypsin, in words (Chymotrypsin): inactive
IC50 (Human Caspase-3): > 500 µM
activity against caspase-3, in words (Human Caspase-3): inactive
IC50 (Human factor Xa): > 500 µM
activity against factor Xa, in words (Human factor Xa): inactive
IC50 (CBV 3C protease): 13 µM

CCNC(=O)/C=C\C(=O)NCC [Compound 15]
inhibition of the protease, in words (CVB3 3C protease): fully inactive

CCCC(CCC)n1[nH]c(=O)cc1NC(=O)/C=C\C(=O)OCC [Compound 17]
kinact/KI (CVB3 3C protease; read-out: kinact/KI): 217 ± 30.7 M⁻¹ s⁻¹

CCOC(=O)/C=C\C(=O)Nc1cc(=O)[nH][nH]1 [Compound 18]
kinact/KI (CVB3 3C protease; read-out: kinact/KI): 11.7 ± 0.5 M⁻¹ s⁻¹

O=C(/C=C/S(=O)(=O)c1ccccc1)Nc1cc(=O)[nH]n1C1CCCCCC1 [Compound 20]
IC50 (ERBV-1 3C protease): 500 nM
reduction of protease activity (ERBV-1 3C protease): strongly reduced the activity
IC50 (EV-D68 3C protease): 1000 nM
reduction of protease activity (EV-D68 3C protease): strongly reduced the activity
IC50 (PSV-1 3C protease): 0.3 µM
reduction of protease activity (PSV-1 3C protease): strongly reduced the activity
IC50 (HRV-A49 3C protease): 300 nM
reduction of protease activity (HRV-A49 3C protease): strongly reduced the activity
IC50 (AiV-1 3C protease): 0.5 µM
reduction of protease activity (AiV-1 3C protease): strongly reduced the activity
kinact/KI (CVB3 3C protease): 1,007 M^−1 s^−1 and 1,007.7±102.2 M^−1 s^−1
kinact/KI (CVB3 3C protease; read-out: kinact/KI): 1010 M⁻¹ s⁻¹
IC50 (Trypsin): > 500 µM
IC50 (EV-B93 3C protease): 200 nM
inhibition of the enzyme (EV-B93 3C protease): fully inhibited
reduction of protease activity (EV-B93 3C protease): strongly reduced the activity
IC50 (Chymotrypsin): > 500 µM
activity against chymotrypsin, in words (Chymotrypsin): inactive
IC50 (Human Caspase-3): > 300 µM
activity against caspase-3, in words (Human Caspase-3): inactive
IC50 (Human factor Xa): > 500 µM
activity against factor Xa, in words (Human factor Xa): inactive
IC50 (CBV 3C protease): 0.4 µM

CC(C)n1[nH]c(=O)cc1NC(=O)/C=C/S(=O)(=O)c1ccccc1 [Compound 21]
kinact/KI (CVB3 3C protease; read-out: kinact/KI): 542 ± 6.3 M⁻¹ s⁻¹
